The source of these data is patent US11878987B2, “Heterocyclic compound as TRK inhibitor” (Beijing Innocare Pharma Tech Co., Ltd., priority 2018, dated 2024).

For one test, the system named is KM12 cells. The test can be described thus: KM12 cell proliferation, luminescent cell viability test (CellTiter-Glo). Type of test: cell-based. The following applies: Homo sapiens, 96 hours, CTG. On the procedure:
Determination of Median Effective Inhibition Concentration GI50 in KM12 Cells
The effect of the compounds of the invention on the proliferation of KM12 cells was evaluated by the luminescent cell viability test.
(§1) The experimental methods were summarized as follows:
CellTilter-Glo (CTG) detection kit was used. A unique and stable luciferase was used to detect ATP, an indicator of viable cell metabolism. The luminescence signal generated in the experiment was proportional to the number of viable cells in the culture medium, thus the proliferation of KM12 cells was detected.
KM12 cell (purchased from Shanghai Xinyu biological Co.) was cultured in IMDM complete medium (Thermo Fisher, 12440053) containing 10% FBS (GBICO, 10099-141) and 100 units/ml of penicillin streptomycin mixture (Thermofisher, 15140122). When the cell coverage rate in the culture container reached 80-90%, 0.25% trypsin (containing EDTA) (Thermofisher, 25200056) was used to digest and disperse the cells, then they were planted in a white 384 well plate (164610). To each well containing 1000 cells was added 27 μL IMDM complete medium. Then the 384 well plate was cultured overnight in an incubator containing 5% CO2 at 37° C. The compound was dissolved into 100% DMSO and diluted to 1 mM, then diluted with DMSO in 4 times serial dilution to the lowest concentration of 0.061 μM. Each concentration point was further diluted 50 times with IMDM medium. If the IC50 value of the compound was very low, the initial concentration of the compound can be reduced. 3 μl Diluted compound was added into each well, centrifuged and mixed well gently. The medium without cells was used as negative control (100% inhibition), and the group with 0.2% DMSO was used as positive control (0% inhibition).
The 384 well plate was placed in the incubator at 37° C. and 5% CO2 for further incubation. After 96 hours, the plate was taken out and placed at room temperature for 30 minutes. […] Then the cold light signal was read by Envision (Perkin Elmer). […]
The percentage of inhibition of KM12 cell proliferation by the compounds can be calculated by the following formula: Inhibition percentage=100−100*{[(Signalcompound−Signalnegative control)−T0control]/[(Signalpositive control−Signalnegative control)−T0control]}
The IC50 values of compounds were calculated by XLfit (ID Business Solutions Ltd., UK) software at 8 concentration points through the following formula: Y=Bottom+(Top−Bottom)/(1+10^((Log IC50−X)*slope factor))
Of which, Y is the inhibition percentage, Bottom is the bottom plateau of the curve (the bottom platform value of S curve), Top is the top plateau of the curve (the top platform value of S curve), X is the logarithm of the concentration of the compound to be measured.

The next test concerns the target T1, TRKA G595R (Homo sapiens, UniProt P04629, G595R).
T1 construct: purchased Signal Chem Life Sciences N16-12BG
The test can be described thus: TRKA G595R activity inhibition test (HTRF kinase assay). The following applies: humanized recombined TRKA G595R protein, 2.9 μM ATP. In kind it is biochemical. On the procedure: TRKA G595R Activity Inhibition Test:
The effect of the compounds of the invention on the activity of TRKA G595R was evaluated by the in vitro kinase assay.
The experimental method was summarized below:
The in vitro activity of TRKA G595R was measured using a HTRF kinase assay kit (Cisbio, No. 62TKOPEC) by detecting the phosphorylation level of the substrate in the kinase reaction. The reaction buffer contained the following components: the reaction buffer of the enzyme in the kit (1×), 5 mM MgCl2, 1 mM DTT. The humanized recombined TRKA G595R protein (No. N16-12BG, purchased from Signal Chem Life Sciences) was diluted into 0.25 ng/kinase solution with the reaction buffer. The substrate reaction solution comprised 0.51 μM biotin-labeled tyrosine kinase substrate and 2.9 μM ATP, which was diluted with reaction buffer. The detection buffer comprised 0.15 ng/μL cage antibody labelled with Eu3+ and 31.875 nM XL665 labeled with streptavidin, which was diluted with reaction buffer.
The compound was dissolved into 100% DMSO and diluted to 1 mM or 100 μM, then diluted with DMSO in 4 times serial dilution to a minimum concentration of 61 or 6.1 nM, and each concentration point was further diluted 40 times with the reaction buffer.
4 μl of solution of the test compound and 2 μl of solution of TRKA G595R kinase were added to the 384 well plate (Corning No. 4512), mixed well and incubated at room temperature for 15 minutes. Then 4 μl of solution of substrate was added and the reaction mixture was incubated at room temperature for 60 minutes. 10 μl of detection buffer of the same volume as the reaction mixture was then added, the reaction mixture was mixed well and allowed to stand for 30 minutes at room temperature. The reaction process was monitored at the wavelength of 620 nm and 665 nm by Envision board reader (Perkin Elmer). The ratio of 665/620 was positively correlated with the phosphorylation level of the substrate, then TRKA G595R kinase activity was determined. In this experiment, the group without TRKA G595R kinase was used as the negative control (100% inhibition), the group with TRKA G595R but without the test compound was used as the positive control (0% inhibition). The inhibition percentage of the test compound on TRKA G595R activity can be calculated by the following formula: Inhibition percentage=100−100*(signal value of the test compound under specific concentration−signal value of the negative control)/(signal value of the positive control−signal value of the negative control) The IC50 value of the test compound was calculated at 8 concentration points by use of XLfit (ID Business Solutions Ltd. UK) software through the following formula: Y=Bottom+(Top−Bottom)/(1+10^((log IC50−X)*slope factor)) […]
In general terms: TR-FRET usually uses a lanthanide donor and a delayed reading to cut background.

The next test concerns the target T2, TRKA G667C (Homo sapiens, UniProt P04629, G667C).
T2 construct: purchased Signal Chem Life Sciences N16-12 CG
The test can be described thus: TRKA G667C activity inhibition test (HTRF kinase assay). Particulars: humanized recombined TRKA G667C protein, 2.7 μM ATP. Type of test: biochemical. On the procedure:
TRKA G667C Activity Inhibition Test:
The effect of the compounds of the invention on the activity of TRKA G667C was evaluated by the in vitro kinase assay.
The experimental methods were summarized below:
The in vitro activity of TRKA G667C was measured using a HTRF kinase assay kit (Cisbio, No. 62TKOPEC) by detecting the phosphorylation level of the substrate in the kinase reaction.
The reaction buffer contained the following components: reaction buffer of the enzyme in the kit (1×), 5 mM MgCl2, 1 mM DTT. The humanized recombined TRKA G667C protein (No. N16-12 CG, Signal Chem Life Sciences) was diluted into 0.09 ng/μl kinase solution with the reaction buffer. […]
4 μl of solution of the test compound and 2 μl of solution of TRKA G667C kinase were added to the 384 well plate (Corning No. 4512), mixed well and incubated at room temperature for 15 minutes. […] The reaction process was monitored at the wavelength of 620 nm and 665 nm by Envision board reader (Perkin Elmer). The ratio of 665/620 was positively correlated with the phosphorylation level of the substrate, then TRKA G667C kinase activity was determined. […]
The IC50 value of the compound was calculated at 8 concentration points by XLfit (ID Business Solutions Ltd. UK) software through the following formula: Y=Bottom+(Top−Bottom)/(1+10^((log IC50−X)*slope factor)) […]

In a further test the target is TRKA (Homo sapiens, UniProt P04629). The test can be described thus: TRKA activity inhibition test (HTRF kinase assay). In kind it is biochemical. Particulars: humanized recombined TRKA protein, 8.4 μM ATP. On the procedure: TRKA Activity Inhibition Test
TRKA, sequence (P04629 33-796): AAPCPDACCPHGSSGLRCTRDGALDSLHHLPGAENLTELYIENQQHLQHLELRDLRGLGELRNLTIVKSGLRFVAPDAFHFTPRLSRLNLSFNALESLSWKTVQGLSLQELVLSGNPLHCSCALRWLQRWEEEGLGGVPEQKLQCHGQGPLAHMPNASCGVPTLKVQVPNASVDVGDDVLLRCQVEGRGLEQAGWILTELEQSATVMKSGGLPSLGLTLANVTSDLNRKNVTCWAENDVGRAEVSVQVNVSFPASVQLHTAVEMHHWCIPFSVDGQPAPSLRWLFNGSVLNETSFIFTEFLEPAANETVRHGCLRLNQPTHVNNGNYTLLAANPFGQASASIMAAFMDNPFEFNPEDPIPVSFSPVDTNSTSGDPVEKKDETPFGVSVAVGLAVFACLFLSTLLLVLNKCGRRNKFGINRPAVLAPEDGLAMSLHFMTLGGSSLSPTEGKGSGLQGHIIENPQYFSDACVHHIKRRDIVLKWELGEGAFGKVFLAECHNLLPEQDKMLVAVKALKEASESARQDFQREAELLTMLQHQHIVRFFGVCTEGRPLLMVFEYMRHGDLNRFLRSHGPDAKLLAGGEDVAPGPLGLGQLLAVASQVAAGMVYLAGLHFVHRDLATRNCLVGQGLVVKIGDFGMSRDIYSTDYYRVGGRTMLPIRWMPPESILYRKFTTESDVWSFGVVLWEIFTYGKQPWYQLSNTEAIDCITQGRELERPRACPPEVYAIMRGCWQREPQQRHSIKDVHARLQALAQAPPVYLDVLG
The effect of the compounds of the invention on TRKA activity was evaluated by in vitro kinase assays
as §1
The in vitro activity of TRKA was measured by the use of a homogeneous time-resolved fluorescence (HTRF) kinase assay kit (Cisbio, NO. 62TKOPEC) through detecting the phosphorylation level of the substrate in the kinase reaction. The reaction buffer contained the following components: reaction buffer of the enzyme in the kit (1×), 5 mM MgCl2, 1 mM DTT; The humanized recombined TRKA protein was expressed and purified by the purification and identification platform of Tsinghua university, and was diluted into kinase solution (3 ng/μl) with the reaction buffer. The substrate reaction solution comprised 0.23 μM biotin-labeled tyrosine kinase substrate and 8.4 μM ATP, which was diluted with reaction buffer. The detection buffer comprised 0.1 ng/μL cage antibody labelled with Eu3+ and 14.375 nM XL665 labeled with streptavidin, which was diluted with reaction buffer.
The compound was dissolved into 100% DMSO and diluted to 100 or 10 μM, then diluted with DMSO in 4 times serial dilution to a minimum concentration of 6.1 or 0.61 nM, and each concentration point was further diluted 40 times with the reaction buffer.
To the 384 well plate (Corning No. 4512), 4 μl of the solution of the test compound and 2 μl of the solution of TRKA kinase were added respectively, then mixed well and incubated at room temperature for 15 minutes. 4 μl of the solution of substrate was then added and the reaction mixture was incubated at room temperature for 60 minutes. A 10 μl detection buffer of the same volume as the reaction mixture was then added, the mixture was mixed well and allowed to stand for 30 minutes at room temperature. The reaction process was monitored at the wavelengths of 620 nm and 665 nm by Envision board reader (Perkin Elmer). The ratio of 665/620 was positively correlated with the phosphorylation level of the substrate, then TRKA kinase activity was determined. […] The inhibition percentage of the test compound on the TRKA activity can be calculated by the following formula: The IC50 value of the compound was calculated at 8 concentration points by use of XLfit software (ID Business Solutions Ltd. UK) through the following formula: Y=Bottom+(Top−Bottom)/(1+10^((log IC50−X)*slope factor)) Of which Y is the inhibition percentage; X is the logarithm of the concentration of the compound to be tested; Bottom is the […] inhibition percentage; Top is the […] inhibition percentage; slope factor is the slope coefficient of the curve.

For test [1] the following is noted: early clinical trials, cited from earlier work.

Molecules are shown by their SMILES.

T1 sequence (P04629 33-796 G595R): as the sequence (P04629 33-796) above, with G563R counted along it
T2 sequence (P04629 33-796 G667C): as the sequence (P04629 33-796) above, with G635C counted along it

Consider `C[C@H]1CNC(=O)Nc2cnn3ccc(nc23)N2C[C@@H](F)C[C@@H]2c2cc(F)cnc2O1` [Compound 1, (2^2R,2^4S,5S)-2^4,3^5-difluoro-5-methyl-4-oxa-7,9-diaza-1(5,3)-pyrazolo[1,5-a]pyrimidin-3(3,2)-pyridin-2(1,2)-pyrrolidincyclononan-8-one], for which it took 0.43 nM to inhibit growth with KM12 cells by half (GI50). Besides, the 50% inhibitory concentration (IC50) (commonly the concentration at which inhibition is half-maximal) is 0.26 nM on TRKA G595R, 1.63 nM on TRKA G667C and 0.24 nM on TRKA.
For the molecule `O=C1NCCOc2ncc(F)cc2[C@H]2C[C@H](F)CN2c2ccn3ncc(c3n2)N1` [Compound 2, (2^2R,2^4S)-2^4,3^5-difluoro-4-oxa-7,9-diaza-1(5,3)-pyrazolo[1,5-a]pyrimidin-3(3,2)-pyridin-2(1,2)-pyrrolidincyclononan-8-one], growth in the test on KM12 cells was halved (GI50) at 3.12 nM. Moreover, the IC50 at TRKA G595R was determined as 12.2 nM; on TRKA G667C it was 16.3 nM; at TRKA, 0.97 nM.
Take `CN1CCOc2ncc(F)cc2[C@H]2C[C@H](F)CN2c2ccn3ncc(c3n2)NC1=O` [Compound 3, (2^2R,2^4S)-2^4,3^5-difluoro-7-methyl-4-oxa-7,9-diaza-1(5,3)-pyrazolo[1,5-a]pyrimidin-3(3,2)-pyridin-2(1,2)-pyrrolidincyclononan-8-one]: the GI50 (as a rule, the concentration that inhibits growth by half) in the test on KM12 cells was determined as 33.7 nM. The IC50 came to 10.2 nM on TRKA G595R and 1.46 nM at TRKA.
Turning to `C[C@H]1CCNC(=O)Nc2cnn3ccc(nc23)N2CCC[C@@H]2c2cc(F)cnc2O1` [Compound 4, (2^2R,5S)-3^5-fluoro-5-methyl-4-oxa-8,10-diaza-1(5,3)-pyrazolo[1,5-a]pyrimidin-3(3,2)-pyridin-2(1,2)-pyrrolidincyclodecan-9-one], growth in the test on KM12 cells was halved (GI50) at 2.26 nM. The IC50 at TRKA G595R came out at 1.4 nM; on TRKA, 1.08 nM.
Consider `O=C(Nc1cnn2ccc(N3CCC[C@@H]3c3cc(F)ccc3F)nc12)N1CC[C@H](O)C1` [larotrectinib], for which, in test [1] (6 patients, no tumor detectable by existing methods), the “patients in complete remission” value was 12%. Moreover, the “patients who achieved objective responses” value in test [1] (38 patients) was 76%. The “patients in remission for more than a year” value in test [1] is recorded as 30 patients.
